From US5670520A, “Method for inhibiting virus replication in mammalian cells using carbostyil derivatives” (Otsuka Pharmaceutical Co., Ltd., priority 1996, dated 1997)
Like-named read-outs stand apart in the source and are kept apart here.

Assays:
[1] = test system: human T cells; assay: Cellular DNA content by flow cytometry (propidium iodide); format: cell-based; conditions: within 48 hrs; 250 μM vesnarinone, 15 nM aphidicolin or 100 μM deferoxamine
Method: Next, cellular DNA content was evaluated over the 0-120 hrs treatment period. More specifically, 10^6 T cells treated in the same manner as described above, were fixed with 70% (v/v) ethanol at 4° C. overnight, centrifuged and washed with phosphate buffered saline (PBS). The fixed cells were incubated with 0.5 ml of 0.25 mg/ml ribonuclease (Sigma, St. Louis, Mo.) in PBS at 37° C. for 10 min. The cell suspension was mixed with 0.5 ml of a 50 μg/ml propidium iodide (Calbiochem, La Jolla, Calif.) solution in PBS, and after 60 min analyzed by flow cytometry (EPICS Profile, Coulter, Hialeah, Fla.), collecting red fluorescence (>600 nm) with 488 nm excitation.

[2] = some patients; cited from earlier work
[3] = MTT cell viability of MRC5 cells; format: cell-based; conditions: human, mrc5 cells, read-out: MTT Cell Viability (% of control)
Method: (§1) More specifically, 5.0 μg/ml of MTT in Eagles MEM supplemented with 2.0% (v/v) fetal bovine serum was added to each well, and incubated at 37° C. for 6 hr. The cells were then solubilized by adding 30% (w/v) SDS in 0.02N HCl. The cultures were incubated overnight at 37° C. Then, the optical density was measured at 570 nm on a spectrophotometer.

[4] = test system: MRC5 cells; assay: MTT cell viability of MRC5 cells; format: cell-based
Method: as §1

[5] = test system: Akata cells; assay: dNTP pools in Akata cells (enzymatic method); conditions: 100 μg/ml vesnarinone
Method: After a 10 min incubation on ice, the supernatant containing dNTPs was removed, frozen and evaporated with a rotary evaporator. The residue was dissolved in 100 μl of H2 O, and a 10 μl aliquot of this solution was used for the measurement of dNTP pool.
More specifically, 10 μl of the sample or a dNTP standard solution was mixed with 40 μl of the reaction buffer comprising 62.5 mMTris-HCl (pH 7.8), 0.625 mM DTT, 0.125 mg/ml calf thymus DNA (Sigma), 0.625 mg/ml BSA, 10 mM MgCl2, 6.25 μM three dNTPs, and 5.0 μCi/ml [^3 H]dATP (ICN, Costa Mesa, Calif.), for measurement of dTTP, dCTP, and dGTP, or [^3 H]dTTP (ICN), for measurement of dATP. The reaction solution was then mixed with 1.0 unit of E. coli DNA polymerase I (Boehringer Mannheim), and incubated for 40 min at 37° C. After completion of the reaction, the mixture was applied to Whatman DE-81 paper filters and radioactivity was determined using a liquid scintillation counter after three washes with 0.35M Na2 HPO4 (pH 7.5). Amounts of dNTP in the samples were calculated according to the calibration curves estimated by a set of standard dNTP samples.
In parallel, to measurement of the content of dNTPs in the untreated Akata cells after release, the dNTP pool in anti-IgG treated Akata cells was also measured in the same manner.

[6] = test system: Raji cells; assay: [3H]adenosine / [3H]adenine transport in Raji cells; conditions: 0-750 μM vesnarinone or 0-100 μM dipyridamole, 1 min pulse
[7] = molecular target: T1, E. coli DNA polymerase I (Escherichia coli, UniProt P00582); assay: In vitro DNA polymerase assay; format: biochemical; conditions: vesnarinone up to 100 μg/ml
T1 construct: purchased Boehringer Mannheim

[8] = test system: thymidine kinase; assay: Thymidine kinase assay, vesnarinone added in vitro; format: biochemical; conditions: vesnarinone up to 100 μg/ml
Method: (§2) 5.0 μl of the kinase extract was incubated at 37° C. with 35 µl of kinase reaction buffer comprising 150 mM phosphate (pH 7.5), 20 mM ATP, 20 mM MgCl2, 40 mM KCl, 1.0 mM DTT, 10 mM NaF and 20 μM [^3 H]thymidine (6.7 Ci/mmole, ICN) for 5 or 15 min. The reaction was terminated by placing on ice, and an addition of 4.0 μl of 0.5M EDTA (pH 8.0). For measurement of dTTP-resistant thymidine kinase activity, a kinase reaction buffer additionally containing 100 μM dTTP (Pharmacia) was used.
(§3) The amount of phosphorylated [^3 H]thymidine derivatives formed during the reaction was determined by applying the reaction mixtures onto Whatman DE-81 paper filters, which were then washed four times in 1.0 mM ammoniumformate (pH 8.0), and once in ethanol before drying and liquid scintillation counting.

[9] = test system: MRC5 cells; assay: Microscopic evaluation of cytotoxicity in MRC5 cells; format: cell-based; conditions: vesnarinone up to 31 μg/ml, alone or with DHPG
[10] = test system: primary human T lymphocytes; assay: Rapid uptake of [3H]thymidine / [3H]AZT in PHA-activated human T cells; conditions: 0-250 μM vesnarinone, 1 min
Method: Human PBMC were obtained by leukopheresis of HIV-1 and HBV Zeronegative healthy donors. Mononuclear cell suspensions were prepared therefrom by Ficoll-Hypaque gradient centrifugation, and the T cells were obtained therefrom by E-rosette enrichment as described by Terada et al, J. Immunol., 147:698-704 (1991).
(§4) Then, 1.0 μCi/ml of [^3 H]thymidine (6.7 Ci/mmol) or 1.0 μCi/ml of [^3 H]AZT (14 Ci/mmol) was added, and the mixture was immediately layered on silicone oil/paraffin oil (96:6) in microfuge tubes. […] The water and oil phases were discarded, and radioactivity of the cell pellets was measured using liquid scintillation counting.

[11] = 31 μg/ml vesnarinone in overlay medium
[12] = test system: PHA-activated human T lymphocytes; assay: Accumulation of phosphorylated [3H]thymidine / [3H]AZT in PHA-activated human T lymphocytes; format: cell-based; conditions: 0, 75 or 250 μM vesnarinone; 0-120 min
Text: Similar results were obtained when using U937 cells, in place of the PHA-activated human T lymphocytes.

[13] = test system: nucleoside and nucleobase transport in human T cells; assay: [3H]nucleoside / [3H]nucleobase transport, 1 min pulse, T cells; format: cell-based; conditions: 250 μM vesnarinone, 100 μM deferoxamine, 15 nM aphidicolin or 1.0 μM dipyridamole
[14] = test system: CHO cells; assay: Rapid uptake of [3H]thymidine / [3H]AZT in CHO cells; conditions: 0-250 μM vesnarinone, 1 min
Method: as §4

[15] = test system: thymidine kinase; assay: Thymidine kinase activity in extracts of treated Akata cells; format: cell-based; conditions: 100 μg/ml vesnarinone
Method: The pellet of frozen cells was suspended in 100 μl of kinase extraction buffer comprising 50 mM Tris (pH 8.0), 50 mM KCl, 1.0 mM MgCl2, 1.0 mM ATP, 1.0 mM DTT, 5.0% (v/v) glycerol, 80 μg/ml aprotinin, 40 μM leupeptin and 1.0 mM PMSF, and incubated on ice for 30 min after a brief sonication. The nuclei were removed by high speed centrifugation for 15 min and the supernatant (kinase extract) was aliquoted and stored at -70° C. The protein concentration of the kinase extract (about 4.0 mg/ml) was determined using standard Bradford Reagent (Bio-Rad Protein Assay Kit, Bio-Rad Laboratories, Hercules, Calif.), with BSA as a protein standard.
as §2, with “For measurement of dTTP-resistant thymidine kinase activity, a kinase reaction buffer additionally containing 100 μM dTTP (Pharmacia) was used.” left out
as §3, with “counting. […]” for “counting.”

[16] = test system: EBV; assay: Productive replication of EBV in growing Akata cells (in situ hybridization); format: cell-based, Epstein-Barr virus; conditions: for positivity for EBV DNA: 20 μg/ml vesnarinone
Method: 1 hr later, anti-IgG was added to the cultures at a final concentration of 50 μg/ml, and the cells were harvested for in situ hybridization of EBV DNA 24 hrs later as described above.

[17] = test system: U937 cells; assay: [3H]thymidine uptake in U937 cells within 1 min; format: cell-based, human; conditions: 0-250 μM vesnarinone or 0-1000 nM dipyridamole
Method: Dipyridamole was prepared as a 50 mM stock solution dissolved in ethanol.

T1 sequence (P00582 whole entry): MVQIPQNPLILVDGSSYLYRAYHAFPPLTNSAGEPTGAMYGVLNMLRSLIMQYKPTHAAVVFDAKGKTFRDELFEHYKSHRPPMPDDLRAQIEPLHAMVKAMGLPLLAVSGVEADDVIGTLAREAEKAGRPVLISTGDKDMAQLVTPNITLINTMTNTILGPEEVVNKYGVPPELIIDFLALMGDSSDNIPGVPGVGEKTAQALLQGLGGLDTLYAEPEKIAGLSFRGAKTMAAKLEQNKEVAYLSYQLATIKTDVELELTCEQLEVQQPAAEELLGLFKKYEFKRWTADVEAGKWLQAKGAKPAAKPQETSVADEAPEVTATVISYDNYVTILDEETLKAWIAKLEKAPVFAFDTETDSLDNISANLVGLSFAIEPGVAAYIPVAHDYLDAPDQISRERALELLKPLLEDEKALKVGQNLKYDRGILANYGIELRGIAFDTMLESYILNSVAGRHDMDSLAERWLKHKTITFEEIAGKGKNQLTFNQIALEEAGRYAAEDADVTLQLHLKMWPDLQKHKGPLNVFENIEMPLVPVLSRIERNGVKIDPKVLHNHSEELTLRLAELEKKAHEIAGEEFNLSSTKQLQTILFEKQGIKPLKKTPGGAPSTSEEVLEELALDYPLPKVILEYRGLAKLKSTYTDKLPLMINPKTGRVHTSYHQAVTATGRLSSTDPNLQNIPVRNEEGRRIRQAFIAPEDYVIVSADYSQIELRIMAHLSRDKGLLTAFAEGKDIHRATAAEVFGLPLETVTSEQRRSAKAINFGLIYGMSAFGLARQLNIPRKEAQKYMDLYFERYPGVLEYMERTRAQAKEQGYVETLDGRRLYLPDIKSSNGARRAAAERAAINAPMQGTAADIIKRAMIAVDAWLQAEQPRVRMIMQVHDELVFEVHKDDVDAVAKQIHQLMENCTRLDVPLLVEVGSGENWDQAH

## COc1ccc(C(=O)N2CCN(c3ccc4c(c3)CCC(=O)N4)CC2)cc1OC [vesnarinone, 3,4-dihydro-6-[4-(3,4-dimethoxybenzoyl)-1-piperazinyl]-2(1H)-quinoline]
[1]
  entry into S and G2/M phases (cellular DNA content): a certain proportion of the cells entered both S and G2/M phases of the cell cycle
[2]
  major side effect in patients: agranulocytosis, a major side effect of vesnarinone observed in some patients
[3]; vesnarinone 3.88 μg/ml alone
  viability: 100%
[3]; vesnarinone 7.75 μg/ml alone
  viability: 98%
[3]; vesnarinone 15.5 μg/ml alone
  viability: 98%
[3]; vesnarinone 31 μg/ml alone
  viability: 90%
[4]; vesnarinone 3.88 μg/ml alone
  MTT Cell Viability (% of control): 100 % of control
[4]; vesnarinone 7.75 μg/ml alone
  MTT Cell Viability (% of control): 98 % of control
[4]; vesnarinone 15.5 μg/ml alone
  MTT Cell Viability (% of control): 98 % of control
[4]; vesnarinone 31 μg/ml alone
  MTT Cell Viability (% of control): 90 % of control
[4]; vesnarinone 3.88-31 μg/ml, alone or with DHPG 0.625-5.000 μM
  cytotoxicity by MTT: little or no cytotoxicity was observed
[5]; 13 hrs after DMSO release, without anti-IgG
  cellular content of dATP and dGTP: displayed progressive reductions 13 hrs after release in the presence of vesnarinone
[5]; 20 hrs after anti-IgG
  level of dTTP in anti-IgG treated cells: partially suppressed in the presence of vesnarinone
[5]; after DMSO release
  cellular content of dCTP: remained low in the presence or absence of vesnarinone
[5]; after DMSO release, without anti-IgG
  cellular content of dTTP: the levels of dTTP remained quite low
[6]
  [3H]adenosine and [3H]adenine transport: inhibitory effects on nucleoside and nucleobase transport in vitro were observed within the therapeutic range
[7]
  effect on in vitro DNA polymerase assay: has no effect on the measurement of dNTP contents in this in vitro DNA polymerase assay
[8]
  thymidine kinase activity, drug added to in vitro assay: did not display any inhibition of the thymidine kinase activity
[9]
  cytotoxicity by microscopic evaluation: No cytotoxicity was observed
[10]
  uptake of [3H]AZT: the uptake of [^3 H]AZT was not affected by vesnarinone
  uptake of [3H]thymidine: inhibits the uptake of [^3 H]thymidine in a dose-dependent manner
[11]
  precipitate observed in culture: A small amount of precipitate was observed at 31 μg/ml of vesnarinone
[12]
  accumulation of phosphorylated AZT: augmented the accumulation of phosphorylated AZT
  accumulation of phosphorylated [3H]thymidine: delayed the accumulation of phosphorylated [^3 H]thymidine
[13]
  transport of [3H]thymidine, [3H]adenosine, [3H]adenine, [3H]uracil: inhibited transportation of [^3 H]thymidine, [^3 H]adenosine, [^3 H]adenine, and also to a lesser extent, [^3 H]uracil
[14]
  uptake of [3H]AZT: the uptake of [^3 H]AZT was not affected by vesnarinone
  uptake of [3H]thymidine: inhibits the uptake of [^3 H]thymidine in a dose-dependent manner
[15]; 100 μM dTTP in reaction
  increase in dTTP-resistant thymidine kinase: partially suppressed by vesnarinone treatment
[15]; without dTTP
  increase in whole thymidine kinase activity in anti-IgG treated cells: partially inhibited in the presence of vesnarinone
[16]; 20 μg/ml vesnarinone only concurrently with anti-IgG treatment
  EBV production: displayed a more profound reduction of EBV production
[16]; pre-treatment alone (7 days)
  positivity for EBV DNA: the degree of positivity for EBV DNA was higher
[16]; pre-treatment+post-treatment or solely post-treatment
  positivity for EBV DNA: reduced the level of positivity for EBV DNA compared to untreated cells
[17]
  uptake of thymidine: inhibited the uptake of thymidine in a dose-dependent manner
